The compounds below were run against T1, Pin1 (Homo sapiens, UniProt Q13526) (assay: Cell-free assay of peptidylprolyl isomerase activity (absorbance at 330 nm, substrate Suc-Ala-Glu-Pro-Phe-pNA)). Conditions: compound 10 μM, Pin1 5 nM, substrate peptide 60 μM, 10° C.; read-out: Pin1 inhibition activity Cell-free assay (inhibition ratio).
T1 sequence (Q13526 whole entry): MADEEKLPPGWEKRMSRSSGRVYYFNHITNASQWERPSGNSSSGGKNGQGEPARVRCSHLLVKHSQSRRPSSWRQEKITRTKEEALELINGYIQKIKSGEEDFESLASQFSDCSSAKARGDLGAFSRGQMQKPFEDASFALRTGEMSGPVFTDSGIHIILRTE
Format: biochemical
Protocol: For some compounds synthesized in Example 1, the inhibitory activity against the function of Pin1 was measured by a cell-free assay based on the method by Janowski et al. (AnalyticalBiochemistry, 1997, Vol. 252, Issue 2, pp. 299-307) because there is an assay measuring peptidylprolylisomerase activity without cells (cell-free).
Briefly, an assay buffer (containing 35 mM HEPES, pH 7.8, 50 μM DTT and 0.0025% NP40) was equilibrated to 10° C. in a quartz cell with stirring function. To this solution was added the compound dissolved in DMSO (10 μM) and then UV spectrum of the resulting solution was immediately measured. Then Pin1 (final concentration of 5 nM) was added to the solution. The reaction was initiated by adding a substrate peptide (Suc-Ala-Glu-Pro-Phe-pNA) dissolved in 0.5 M LiCl solution in trifluoroethanol (final concentration of 60 μM). After reaction was initiated, the change of absorbance at 330 nm was measured for 5 minutes. The resultant reaction curve was fitted to a first order decay model to calculate the reaction rate. The catalytic reaction rate was calculated by subtracting the background rate from the reaction rate. The inhibition ratio (%) was calculated from the catalytic reaction rates in the presence and absence of the compound. The higher inhibition ratio means the higher inhibitory activity against Pin1 function.
In the case of `O=C(O)c1cc(NC(=O)c2ccc3c(c2)OCCO3)cc(NC(=O)n2c3ccccc3c3ccccc32)c1` [Compound H-692], the inhibition at 10 µM is reported as 80 to 94%. `O=C(Cn1c2ccccc2c2ccccc21)Nc1cc(NC(=O)c2ccc3c(c2)OCCO3)cc(C(=O)O)c1` [Compound H-749] was tested, and the inhibition at 10 µM was 53%. For `O=C(COc1ccc2ccccc2c1)Nc1cc(NC(=O)n2c3ccccc3c3ccccc32)cc(C(=O)O)c1` [Compound H-761], the inhibition at 10 µM was 70%. `O=C(COc1ccc2ccccc2n1)Nc1cc(NC(=O)n2c3ccccc3c3ccccc32)cc(C(=O)O)c1` [Compound H-765] showed an inhibition at 10 µM of 42.8%. `O=C(Nc1cc(NC(=O)c2ccc3ccccc3c2)cc(C(=O)O)c1)Nc1cccc2ccccc12` [Compound H-613] was tested, and the inhibition at 10 µM was 38%. Work on `O=C(CNC(=O)c1ccccc1)Nc1cc(NC(=O)n2c3ccccc3c3ccccc32)cc(C(=O)O)c1` [Compound H-767] yielded an inhibition at 10 µM of 74.8%. Work on `O=C(CNC(=O)OCc1ccccc1)Nc1cc(NC(=O)n2c3ccccc3c3ccccc32)cc(C(=O)O)c1` [Compound H-769] yielded an inhibition at 10 µM of 15.9%. `O=C(O)c1cc(NC(=O)c2ccc3ccccc3n2)cc(NC(=O)N(c2ccccc2)c2ccccc2)c1` [Compound H-733] was tested, and the inhibition at 10 µM was 61%. `O=C(CN(c1ccccc1)c1ccccc1)Nc1cc(NC(=O)c2ccccc2)cc(C(=O)O)c1` [Compound H-825] gave an inhibition at 10 µM of 19.9%. For `O=C(CN(c1ccccc1)c1ccccc1)Nc1cc(NC(=O)c2ccc3c(c2)OCCO3)cc(C(=O)O)c1` [Compound H-823], the inhibition at 10 µM was 4.2%.

These compounds were tested against T1, Pin1 (assay: Cell-based assay of Pin1 inhibition (AMPK phosphorylation level as index, Western blot)). Conditions: 293T cells, compound at 50 μM, 10 mM 2-DG, pAMPK level compared with known Pin1 inhibitor C1.
Parameters: endogenous in cells; host or cells: 293T cells; key: +++: a higher level of AMPK phosphorylation is promoted, as compared with C1; ++: a similar level of AMPK phosphorylation is promoted, as compared with C1; +: a lower level of AMPK phosphorylation is promoted, as compared with C1; −: no or almost no promotion is found in AMPK phosphorylation
Protocol: To evaluate the inhibitory activity of each compound synthesized in Example 1 against the function of Pin1, a cell-based assay was performed according to the method previously developed by the inventors (Yusuke Nakatsu et al., Journal of Biological Chemistry, 2015, Vol. 290, No. 40, pp. 24255-24266), in which the phosphorylation level of AMPK (AMP-activated protein kinase), a protein whose phosphorylation is suppressed by Pin1, was examined as an index.
Briefly, 293T cells were plated on a collagen-coated 24-well plate. Forty-eight hours later, each compound synthesized in the preceding example (at 50 μM) was added to the plate, and the plate was left to stand in an incubator for 30 minutes. Subsequently, 10 mM 2-DG was added to the plate, and one hour later, each sample was collected with a buffer containing mercaptoethanol and SDS.
SDS-PAGE and blotting were performed, and blocking was then performed with 3% BSA for 1 hour, according to conventional protocols. Subsequently, a pAMPK antibody (Cell Signaling; diluted 1:2000 in Can Get Signal Solution 1, Toyobo) as a primary antibody, and an HRP-linked anti rabbit IgG (GE Healthcare; diluted 1:4000 in Can Get Signal Solution 2, Toyobo) as a secondary antibody were allowed to react at ambient temperature for 1 hour prior to detection.
The inhibitory activity against the function of Pin1 was evaluated as indicated below by comparing the inhibition levels between each compound and a known Pin1 inhibitor, C1 ((R)-2-(5-(4-methoxyphenyl)-2-methylfuran-3-carboxamido)-3-(naphthalene-6-yl) propanoic acid):
(+++): a higher level of AMPK phosphorylation is promoted, as compared with C1;
(++): a similar level of AMPK phosphorylation is promoted, as compared with C1;
(+): a lower level of AMPK phosphorylation is promoted, as compared with C1;
(−): no or almost no promotion is found in AMPK phosphorylation.
With `O=C(O)c1cc(NC(=O)c2ccc3c(c2)OCCO3)cc(NC(=O)n2c3ccccc3c3ccccc32)c1` [Compound H-692] the “Pin1 inhibition activity Cell-based assay” value was “+++”. For `COC(=O)c1cc(NC(=O)c2cnccn2)cc(NC(=O)n2c3ccccc3c3ccccc32)c1` [Compound H-699], the “Pin1 inhibition activity Cell-based assay” value was “++ (Hydrolysis causes conversion to H-700)”. `COC(=O)c1cc(NC(=O)CNC(=O)OCc2ccccc2)cc(NC(=O)n2c3ccccc3c3ccccc32)c1` [Compound H-768] was tested, and the “Pin1 inhibition activity Cell-based assay” value was “− (Hydrolysis causes conversion to H-769)”. In the case of `COC(=O)c1cc(NC(=O)c2ccc3ccccc3n2)cc(NC(=O)N(c2ccccc2)c2ccccc2)c1` [Compound H-729], the “Pin1 inhibition activity Cell-based assay” value is reported as “++ (Hydrolysis causes conversion to H-733)”. In the case of `COC(=O)c1cc(NC(=O)c2ccc3c(c2)OCO3)cc(NC(=O)n2c3ccccc3c3ccccc32)c1` [Compound H-690], the “Pin1 inhibition activity Cell-based assay” value is reported as “− (Hydrolysis causes conversion to H-695)”. `COC(=O)c1cc(NC(=O)COc2ccccc2)cc(NC(=O)n2c3ccccc3c3ccccc32)c1` [Compound H-758] was tested, and the “Pin1 inhibition activity Cell-based assay” value was “− (Hydrolysis causes conversion to H-759)”. `O=C(COc1ccc2ccccc2c1)Nc1cc(NC(=O)n2c3ccccc3c3ccccc32)cc(C(=O)O)c1` [Compound H-761] was tested, and the “Pin1 inhibition activity Cell-based assay” value was “−”. `O=C(COc1ccc2ccccc2n1)Nc1cc(NC(=O)n2c3ccccc3c3ccccc32)cc(C(=O)O)c1` [Compound H-765] was tested, and the “Pin1 inhibition activity Cell-based assay” value was “−”. `O=C(Nc1cc(NC(=O)c2ccc3ccccc3c2)cc(C(=O)O)c1)Nc1cccc2ccccc12` [Compound H-613] was tested, and the “Pin1 inhibition activity Cell-based assay” value was “+ to ++”. `COC(=O)c1cc(NC(=O)c2ccc3ccccc3c2)cc(NC(=O)n2c3ccccc3c3ccccc32)c1` [Compound H-591] was tested, and the “Pin1 inhibition activity Cell-based assay” value was “+++ (Hydrolysis causes conversion to H-594)”. In the case of `O=C(O)c1cc(NC(=O)c2ccc(O)cc2)cc(NC(=O)n2c3ccccc3c3ccccc32)c1` [Compound H-697], the “Pin1 inhibition activity Cell-based assay” value is reported as “+”. For `O=C(O)c1cc(NC(=O)c2cccnc2)cc(NC(=O)n2c3ccccc3c3ccccc32)c1` [Compound H-682], the “Pin1 inhibition activity Cell-based assay” value was “+”. With `COC(=O)c1cc(NC(=O)Cn2c3ccccc3c3ccccc32)cc(NC(=O)c2ccc3ccccc3n2)c1` [Compound H-746] the “Pin1 inhibition activity Cell-based assay” value was “− (Hydrolysis causes conversion to H-747)”. In the case of `O=C(CNC(=O)c1ccccc1)Nc1cc(NC(=O)n2c3ccccc3c3ccccc32)cc(C(=O)O)c1` [Compound H-767], the “Pin1 inhibition activity Cell-based assay” value is reported as “−”. With `COC(=O)c1cc(NC(=O)c2cnc3ccccc3n2)cc(NC(=O)N(c2ccccc2)c2ccccc2)c1` [Compound H-731] the “Pin1 inhibition activity Cell-based assay” value was “+++ (Hydrolysis causes conversion to H-735)”. `COC(=O)c1cc(NC(=O)Cn2c3ccccc3c3ccccc32)cc(NC(=O)c2ccc3c(c2)OCCO3)c1` [Compound H-748] was tested, and the “Pin1 inhibition activity Cell-based assay” value was “++ (Hydrolysis causes conversion to H-749)”. For `O=C(CNC(=O)OCc1ccccc1)Nc1cc(NC(=O)n2c3ccccc3c3ccccc32)cc(C(=O)O)c1` [Compound H-769], the “Pin1 inhibition activity Cell-based assay” value was “−”. With `O=C(O)c1cc(NC(=O)c2ccc3c(c2)OCO3)cc(NC(=O)n2c3ccccc3c3ccccc32)c1` [Compound H-695] the “Pin1 inhibition activity Cell-based assay” value was “+++”. In the case of `O=C(O)c1cc(NC(=O)c2cnccn2)cc(NC(=O)n2c3ccccc3c3ccccc32)c1` [Compound H-700], the “Pin1 inhibition activity Cell-based assay” value is reported as “++”. For `O=C(Cn1c2ccccc2c2ccccc21)Nc1cc(NC(=O)c2ccc3ccccc3n2)cc(C(=O)O)c1` [Compound H-747], the “Pin1 inhibition activity Cell-based assay” value was “++”. With `O=C(O)c1cc(NC(=O)c2ccccc2)cc(NC(=O)n2c3ccccc3c3ccccc32)c1` [Compound H-681] the “Pin1 inhibition activity Cell-based assay” value was “++”. In the case of `O=C(O)c1cc(NC(=O)c2ccc3ccccc3n2)cc(NC(=O)N(c2ccccc2)c2ccccc2)c1` [Compound H-733], the “Pin1 inhibition activity Cell-based assay” value is reported as “−”. With `O=C(O)c1cc(NC(=O)c2cnc3ccccc3n2)cc(NC(=O)N(c2ccccc2)c2ccccc2)c1` [Compound H-735] the “Pin1 inhibition activity Cell-based assay” value was “+”. With `COC(=O)c1cc(NC(=O)Nc2cccc3ccccc23)cc(NC(=O)c2ccc3ccccc3c2)c1` [Compound H-609] the “Pin1 inhibition activity Cell-based assay” value was “++ to +++ (Hydrolysis causes conversion to H-613)”. `COC(=O)c1cc(NC(=O)c2ccc3ccccc3c2)cc(NC(=O)N(c2ccccc2)c2ccccc2)c1` [Compound H-728] was tested, and the “Pin1 inhibition activity Cell-based assay” value was “+ (Hydrolysis causes conversion to H-732)”. For `O=C(O)c1cc(NC(=O)c2ccc3ccccc3c2)cc(NC(=O)n2c3ccccc3c3ccccc32)c1` [Compound H-594], the “Pin1 inhibition activity Cell-based assay” value was “+++”. In the case of `COC(=O)c1cc(NC(=O)c2ccc(OC(C)=O)cc2)cc(NC(=O)n2c3ccccc3c3ccccc32)c1` [Compound H-696], the “Pin1 inhibition activity Cell-based assay” value is reported as “++ (Hydrolysis causes conversion to H-697)”. For `COC(=O)c1cc(NC(=O)Cn2c3ccccc3c3ccccc32)cc(NC(=O)c2ccc3ccccc3c2)c1` [Compound H-744], the “Pin1 inhibition activity Cell-based assay” value was “+ (Hydrolysis causes conversion to H-745)”. `COC(=O)c1cc(NC(=O)c2ccc(NC(C)=O)cc2)cc(NC(=O)n2c3ccccc3c3ccccc32)c1` [Compound H-687] was tested, and the “Pin1 inhibition activity Cell-based assay” value was “− (Hydrolysis causes conversion to H-694)”. `O=C(O)c1cc(NC(=O)c2ccc3ccccc3c2)cc(NC(=O)N(c2ccccc2)c2ccccc2)c1` [Compound H-732] was tested, and the “Pin1 inhibition activity Cell-based assay” value was “+”. For `COC(=O)c1cc(NC(=O)CNC(=O)c2ccccc2)cc(NC(=O)n2c3ccccc3c3ccccc32)c1` [Compound H-766], the “Pin1 inhibition activity Cell-based assay” value was “+ (Hydrolysis causes conversion to H-767)”. For `COC(=O)c1cc(NC(=O)c2ccc3c(c2)OCCO3)cc(NC(=O)N(c2ccccc2)c2ccccc2)c1` [Compound H-730], the “Pin1 inhibition activity Cell-based assay” value was “++ (Hydrolysis causes conversion to H-734)”. In the case of `COC(=O)c1cc(NC(=O)COc2ccc3ccccc3n2)cc(NC(=O)n2c3ccccc3c3ccccc32)c1` [Compound H-764], the “Pin1 inhibition activity Cell-based assay” value is reported as “− (Hydrolysis causes conversion to H-765)”. With `COC(=O)c1cc(NC(=O)c2ccccc2)cc(NC(=O)n2c3ccccc3c3ccccc32)c1` [Compound H-679] the “Pin1 inhibition activity Cell-based assay” value was “++ (Hydrolysis causes conversion to H-681)”. With `COC(=O)c1cc(NC(=O)COc2ccc3ccccc3c2)cc(NC(=O)n2c3ccccc3c3ccccc32)c1` [Compound H-760] the “Pin1 inhibition activity Cell-based assay” value was “+ (Hydrolysis causes conversion to H-761)”.

Reference: patent publication US12545643B2, “3,5-diaminobenzoic acid compound, and Pin1 inhibitor and therapeutic agent for inflammatory diseases using same” (Amenis Bioscience, Inc., priority 2020, dated 2026)
